Laboratory results reported in patent US9399194B2, “Methods for treating a liquid using draw solutions” (priority 2014, dated 2016).
Several values for one entry are separate records, joined by “and”; a condition that tells them apart may be missing. Equal entries are not always repeated.

Tests used:
[1] = Freezing point depression osmometry: maximum concentration and osmotic pressure; assay type: physicochemical; settings: for maximum osmotic pressure (projected): full/high concentration, projected from dilute solution freezing point data
Protocol: (§1) House deionized (DI) water was used in all experiments. CHP was obtained from Alfa Aesar and used as received. All equipment was used in accordance with manufacturer specifications unless stated otherwise. Freezing point depression osmometry was performed using an Advanced Instruments, Inc. Model 3250 Osmometer. Viscosity measurements were made using the falling bob method with a Cambridge Applied Systems VL4100 viscometer.
The diamond symbols indicate molality of amine and ammonium ions. The square symbols indicate the total species molality including amines, ammonium ions, and carbonate species. […] There is strong evidence that as osmotic pressures increase, there are diminishing returns in terms of kinetics for osmotic flux. For any osmotic pressure over 370 atm, the osmotic pressure of a saturated NaCl solution is likely to be less important than solute and solution properties like diffusion and viscosity.
The maximum osmotic pressures of different tertiary amines were determined by osmometry.

[2] = Draw solution degassing monitored by freezing point osmometry; assay type: physicochemical; settings: for temperature needed to degas: ambient atmospheric pressure, comparable kinetics
Excerpt: To determine the relative performance of CHP and DMCA at different temperatures, draw solutions containing CHP or DMCA were recirculated through a segment of a heat exchanger featuring a high surface area honeycomb composition design with a temperature regulated fluid recirculated through the other path. Concentration data was collected with a freezing point osmometer by conventional techniques. Osmolality is an excellent predictor for the pressure needed to remove dissolved solids by filtration. Generally, 1 Osm/Kg corresponds to about 24.5 atm.
Upon addition of one atm of CO2 to the draw solution of Example 1, the oily, nonpolar CHP readily produced the corresponding polar ammonium bicarbonate acid-base salt. To test the degassing process, CHP-ammonium bicarbonate solutions were recirculated through a high surface area heat exchanger with a gear pump while the other loop of the heat exchanger was attached to a recirculating heat bath that was set to the desired temperature. The experiment progression was monitored with a freezing point osmometry. The degassing process was intended to reduce the solution osmotic pressure, reducing it to nothing or minimizing it for a low pressure RO treatment. The progress of the degassing reaction was measured by osmometry, which corresponds to osmotic pressure and can be rapidly obtained. For comparison, a draw solution including DMCA-H^+ was also investigated. In the case of DMCA at full concentration, it will start degassing at a temperature as low as 25° C., requiring viscosity measurements to be made at 15° C. However, DMCA requires nearly reflux conditions to fully remove the CO2.

[3] = at 25° C.; cited from earlier work
[4] = saturated NaCl solution; cited from earlier work
[5] = Forward osmosis flux experiments (FO mode) against pure water; settings: about 30 wt % CHP-H+ or 0.9 mol/kg NaCl against pure water, identical membranes
Protocol: All flux experiments were conducted in “FO mode” with the membrane's active layer facing the feed solution. The process was allowed 1-5 minutes to equilibrate and the average of the next 10 minutes was reported as the “initial flux.”
Using identical membranes and test conditions, the water flux for CHP-H^+ was 10 kg/m^2 hr compared with 10 kg/m^2 hr for the NaCl solution.

[6] = Viscosity and density of the CHP-H+ draw solution; assay type: physicochemical
Protocol: as §1
DI water (229.7 g) and CHP (221.2 g, 1.32 mol) were placed in a bottle equipped with a gas diffuser and exposed to a steady stream of carbon dioxide for 3 hours while being stirred with a magnetic stir bar. The resulting product was a clear homogeneous solution with a mass of 491.4 g, a solution viscosity of 44.0 cP at 15.0° C., and a density of 1.09 g/ml at 21° C. After exposure to the carbon dioxide, the solution contained CHP-H^+ (i.e., CHP in its polar form).

## CN(C)C1CCCCC1.O=C(O)O [DMCA-H^+, dimethylcyclohexylammonium bicarbonate]
[1]
  maximum osmotic pressure (projected): ~835 atm
[2]; 70° C., after 4-6 hours
  osmolality after degassing: 2.4 Osm/Kg
[2]; 95° C., after 6.5 hours
  osmolality after degassing: 0.2 Osm/Kg

## CN(C)C1CCCCC1 [DMCA, N,N-dimethylcyclohexylamine]
[3]
  vapor pressure: about 2.2 mm Hg
[2]
  temperature needed to degas: about 95 °C
[2]; full concentration
  temperature at which degassing starts: 25 °C

## C1CCC(N2CCCCC2)CC1 [CHP, 1-cyclohexylpiperidine]
[3]
  vapor pressure: about 0.1 mm Hg
[1]
  amine:carbonic acid ratio: 1.00
  maximum osmotic pressure (projected): 536 atm and > 500 atm
[1]; by osmometry, FIG. 4
  maximum osmotic pressure: greater than 250 atm
[2]
  temperature needed to degas: about 70 °C

## [Cl-].[Na+] [NaCl, reference compound]
[4]
  osmotic pressure: 370 atm
[5]
  water flux (initial flux): 10 kg/m^2 hr

## C1CCC(N2CCCCC2)CC1 [CHP-H^+]
[1]
  maximum osmotic pressure (projected): greater than 500 atm
[5]
  water flux (initial flux): 10 kg/m^2 hr
[2]; 70° C., after extended treatment
  osmolality after degassing: 0.2 Osm/Kg
[2]; 70° C., within 3 hours
  osmolality after degassing: 0.6 Osm/Kg
[6]; draw solution of Example 1, at 15.0° C.
  solution viscosity: 44.0 cP
[6]; draw solution of Example 1, at 21° C.
  density: 1.09 g/mL
